This note sets out measurements from patent publication US8518945B2, “Pyrrolopyrazine kinase inhibitors” (Hoffmann-La Roche Inc., priority 2010, dated 2013).

Each structure is given as a SMILES string.

Broadly, the IC50 is the point on the concentration scale where inhibition reaches its midpoint.

T1 sequence (P52333 810-1124): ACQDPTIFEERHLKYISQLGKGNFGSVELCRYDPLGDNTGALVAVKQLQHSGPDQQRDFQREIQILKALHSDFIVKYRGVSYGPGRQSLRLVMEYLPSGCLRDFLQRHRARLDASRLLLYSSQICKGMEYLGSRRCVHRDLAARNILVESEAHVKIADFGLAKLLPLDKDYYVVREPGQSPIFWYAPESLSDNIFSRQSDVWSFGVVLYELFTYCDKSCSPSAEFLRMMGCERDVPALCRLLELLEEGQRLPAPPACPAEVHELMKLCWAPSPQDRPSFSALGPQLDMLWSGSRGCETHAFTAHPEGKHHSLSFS

The assay concerns the target T1, h-jak3(810-1124) (JAK3: Recombinant human kinase domain) (Homo sapiens, UniProt P52333).
T1 construct: jak3(810- 1124)-sf9-c; made in house; host or cells: Sf9
Kind of assay: Determination of IC50 of Janus Kinase (JAK) inhibition: JAK3 radioactive end-point 33P-ATP kinase assay. It is filed as biochemical. Particulars: no additive; ATP 1.5 uM, peptide 50 uM, 20 minutes, room temperature; read-out: Ic50 h-jak3(810-1124)-sf9-c: no additive.
From the text: Determination of IC50 of Janus Kinase (JAK) Inhibition:
Enzymes and peptide substrate used are described below: • JAK1: Recombinant human kinase domain from Invitrogen (Cat # PV4774) • JAK3: Recombinant human kinase domain from Millipore (Cat # 14-629) or prepared. • JAK2: Recombinant human kinase domain from Millipore (Cat # 14-640) • Substrate: N-terminally biotinylated 14-mer peptide derived from activation loop of JAK1 with sequence of the peptide substrate: Biotin-[sequence]
Assay conditions— used are described below: • Assay Buffer: JAK Kinase Buffer: 50 mM Hepes [pH 7.2], 10 mM MgCl2, 1 mM DTT, 1 mg/ml BSA. The assay was carried out in this buffer. • Assay Format The kinase activity of all three JAK kinases was measured using a radioactive, end-point assay and with trace amounts of ^33P-ATP. The assays were carried out in 96-well polypropylene plates. Experimental Method:
All concentrations were final in the reaction mixture and all incubations were carried at room temperature. […] Final concentration of DMSO in the reaction was 10%. • 2) Compounds were preincubated with enzyme (0.5 nM JAK3 (commercially available), 0.2 nM JAK3 (prepared), 1 nM JAK2, 5 nM JAK1) for 10 minutes. • 3) Reactions were initiated by the addition of a cocktail of the two substrates (ATP and peptide premixed in the JAK Kinase Buffer). In the JAK2/JAK3 assays, ATP and the peptide were used at concentrations of 1.5 uM and 50 uM, respectively. JAK1 assay was carried out at an ATP concentration of 10 uM and a peptide concentration of 50 uM. • 4) The duration of the assay for JAK2 and JAK3 is 20 minutes. JAK1 assay was carried out for 40 minutes. With all three enzymes, reactions were terminated by the addition of 0.5M EDTA to a final concentration of 100 mM. • 5) 25 ul of terminated reactions were transferred to 150 ul of a 7.5% (v/v) slurry of streptavidin-coated sepharose beads in MgCl2- and CaCl2-free 1× Phosphate Buffered Saline containing 50 mM of EDTA in 96-well, 1.2 um MultiScreen-BV filter plates. • 6) After a 30-minute incubation, the beads were washed under vacuum with the following buffers: • a. 3 to 4 washes with 200 ul of 2M NaCl. • b. 3 to 4 washes with 200 ul of 2M NaCl plus 1% (v/v) phosphoric acid. • c. 1 wash with water. • 7) Washed plates were dried in a 60° C. oven for between 1 to 2 hours. • 8) 70 ul of Microscint 20 scintillation fluid was added to each well of filter plates and after at least 30 minutes of incubation, radioactive counts were measured in a Perkinelmer microplate scintillation counter.
Turning to `CCn1cc(-c2cnc3[nH]cc(C(=O)N[C@@H](C(=O)N4CCCC4)C4CC4)c3n2)cn1` [Example I-27, 2-(1-Ethyl-1H-pyrazol-4-yl)-5H-pyrrolo[2,3-b]pyrazine-7-carboxylic acid ((R)-1-cyclopropyl-2-oxo-2-pyrrolidin-1-yl-ethyl)-amide], the half-maximal inhibitory concentration (IC50) amounted to 1.94 nM. The value for `N#CC1CCN(C(=O)[C@@H](Cc2ccccc2)NC(=O)c2c[nH]c3ncc(C4CC4)nc23)CC1` [Example I-48, 2-Cyclopropyl-5H-pyrrolo[2,3-b]pyrazine-7-carboxylic acid [(R)-1-benzyl-2-(4-cyano-piperidin-1-yl)-2-oxo-ethyl]-amide] was 0.6 nM; that for `N#CC1CCN(C(=O)[C@H](NC(=O)c2c[nH]c3ncc(-c4cn(C5CCCC5)nn4)nc23)C2CC2)CC1` [Example I-107, 2-(1-Cyclopentyl-1H-[1,2,3]triazol-4-yl)-5H-pyrrolo[2,3-b]pyrazine-7-carboxylic acid [(R)-2-(4-cyano-piperidin-1-yl)-1-cyclopropyl-2-oxo-ethyl]-amide] was 6.57 nM; that for `CC(C)[C@@H](NC(=O)c1c[nH]c2ncc(C3CC3)nc12)C(=O)N1CCCC1` [Example I-4, 2-Cyclopropyl-5H-pyrrolo[2,3-b]pyrazine-7-carboxylic acid [(R)-2-methyl-1-(pyrrolidine-1-carbonyl)-propyl]-amide] was 4.86 nM. Next, `Cc1nc(-c2cnc3[nH]cc(C(=O)N[C@@H](C(=O)N4CC(C#N)C4)C(C)(C)C)c3n2)cn1-c1cccc(F)c1` [Example I-158, 2-[1-(3-Fluoro-phenyl)-2-methyl-1H-imidazol-4-yl]-5H-pyrrolo[2,3-b]pyrazine-7-carboxylic acid [(R)-1-(3-cyano-azetidine-1-carbonyl)-2,2-dimethyl-propyl]-amide]: 2.34 nM; `Cn1cc(-c2cnc3[nH]cc(C(=O)N[C@@H](C(=O)N4C[C@@H]5[C@@H](CO)[C@@H]5C4)C4CC4)c3n2)cn1` [Example I-87, 2-(1-Methyl-1H-pyrazol-4-yl)-5H-pyrrolo[2,3-b]pyrazine-7-carboxylic acid [(R)-1-cyclopropyl-2-((1S,5R,6R)-6-hydroxymethyl-3-aza-bicyclo[3.1.0]hex-3-yl)-2-oxo-ethyl]-amide]: 4.49 nM.

Turning to `CC(C)(C)[C@@H](NC(=O)c1c[nH]c2ncc(C3CC3)nc12)C(=O)N1CC[C@@H](C#N)C1` [Example I-31, 2-Cyclopropyl-5H-pyrrolo[2,3-b]pyrazine-7-carboxylic acid [(R)-1-((R)-3-cyano-pyrrolidine-1-carbonyl)-2,2-dimethyl-propyl]-amide], the IC50 was found to be 0.8 nM. `O=C(N[C@@H](C(=O)N1CCCC1)C1CCCC1)c1c[nH]c2ncc(C3CC3)nc12` [Example I-26, 2-Cyclopropyl-5H-pyrrolo[2,3-b]pyrazine-7-carboxylic acid ((R)-1-cyclopentyl-2-oxo-2-pyrrolidin-1-yl-ethyl)-amide]: the IC50 came out at 3.98 nM. Next, `CC(C)(C)c1ccnc(-c2cnc3[nH]cc(C(=O)N[C@@H](C(=O)N4CCC(C#N)CC4)C4CC4)c3n2)c1` [Example I-145, 2-(4-tert-Butyl-pyridin-2-yl)-5H-pyrrolo[2,3-b]pyrazine-7-carboxylic acid [(R)-2-(4-cyano-piperidin-1-yl)-1-cyclopropyl-2-oxo-ethyl]-amide]: 15.2 nM; `CC(C)(C)[C@@H](NC(=O)c1c[nH]c2ncc(-c3cn(CC(F)(F)F)cn3)nc12)C(=O)N1CCC(C#N)CC1` [Example I-122, 2-[1-(2,2,2-Trifluoro-ethyl)-1H-imidazol-4-yl]-5H-pyrrolo[2,3-b]pyrazine-7-carboxylic acid [(R)-1-(4-cyano-piperidine-1-carbonyl)-2,2-dimethyl-propyl]-amide]: 4.05 nM.
